Earlier results, collected in patent US20010036658A1, “Culture media for growing spirochetes” (priority 1997, published 2001).
Where two headings read alike, the source gives them in different places.

SMILES: COc1cccc2c1C(=O)c1c(O)c3c(c(O)c1C2=O)C[C@@](O)(C(=O)CO)C[C@@H]3O[C@H]1C[C@H](N)[C@H](O)[C@H](C)O1 [doxorubicin]
- conversion of normal erythrocytes to echinocytes (erythrocytes): prevents
- anti-bacterial activity (L-forms of bacteria; certain L-forms of bacteria): dramatic anti-bacterial activity
- anti-bacterial activity (L-forms of bacteria; parent forms of the same bacteria): without any demonstrable effect
